{"source": "patent US4996225A", "about": "“Tri-phenyl alkane derivatives and their oestrogenic, anti-oestrogenic and progestanic uses” (Farmos Group Ltd., priority 1982, dated 1991)", "key": {"[1]": {"tested_on": "rat ovarial carcinoma", "assay": "antitumour effect against transplantable rat ovarial carcinoma", "type": "in vivo", "details": "5 mg/kg, ten days' treatment", "excerpt": "(§1) The anti-tumour effect was investigated in vivo against DMBA-induced rat mammary adenocarcinomas, transplantable mammary and ovarial adenocarcinoma and transplantable prostatic squamous cell carcinoma by the following methods:\n(§2) Transplantable rat mammary adenocarcinoma was developed by inoculating pieces of DMBA-induced carcinomas subcutaneously to healthy mature female rats. A tumour which expressed malignant growth was selected for further transplantations. Other transplantable tumours were inoculated subcutaneously as washed cell suspension (10^7 cells/animal)."}, "[2]": {"tested_on": "estradiol induced weight increase in immature mouse uterus", "assay": "antiestrogenic effect, inhibition of oestrogen-induced uterus weight increase in immature mice", "type": "in vivo", "protocol": "(§3) The oestrogen-antiestrogen (progesterone) effect of the new compounds in vivo was determined as follows: (1) The oestrogenic properties were determined by administering the new compounds, suspended in sesame oil, subcutaneously to 21 days old immature mice on three consecutive days. The mice were killed on the fourth day and the uterus was weighed. […] The weight correlates with the oestrogenic effect of the compound tested. […] In this case, the ability of the molecules to inhibit oestrogen-induced uterus weight increase was also investigated."}, "[3]": {"tested_on": "mouse uterus sarcoma", "assay": "antitumour effect against transplantable mouse uterus sarcoma", "type": "in vivo", "details": "100 mg/kg, two weeks' treatment", "excerpt": "The activity of the molecules against other tumours was studied by administering the molecules by stomach tube to animals implanted with transplantable uterus sarcoma (mice) or prostatic adenocarcinoma (rats).\nDaily or twice weekly administration schedules were employed. NMRI mice (about 20 g, females) and Fischer 344 rats (about 200 g, males) were used. Estramustine phosphate served as positive control.\nas §2"}, "[4]": {"tested_on": "DMBA-induced rat mammary adenocarcinomas", "assay": "antitumour effect in vivo against DMBA-induced rat mammary adenocarcinoma", "details": "for growth / size of tumour (width×height): 30 mg/kg", "protocol": "as §1\nMammary adenocarcinomas were induced by DMBA in 35-40 days old female rats. […] Tumour size and numbers of tumours were evaluated twice a week. Tumour sizes in the control group, treated with solvent, were compared with the test groups.\nThe size refers to the width×height of the tumour. The growth rate is a difference between sizes compared with that of the first day of the treatment."}, "[5]": {"tested_on": "immature mouse uterus", "assay": "oestrogenic effect, uterus weight of immature mice", "type": "in vivo", "protocol": "as §3"}, "[6]": {"tested_on": "immature mouse uterus", "assay": "progestanic effect, uterus weight of immature mice (alone or with medroxyprogesterone acetate)", "type": "in vivo", "design": "reduction in the weight of a mouse uterus, given alone / reduction in the weight of uterus with medroxyprogesterone / reduction in the weights of mice uterus, given alone: concentration or dose not given beside the values", "details": "for progestanic effect (in words): immature mouse uterus; for effect with medroxyprogesterone (in words) / reduction in the weights of mice uterus with medroxyprogesterone, compared to control: with medroxyprogesterone 0.06 mg/kg"}, "[7]": {"tested_on": "MCF-7 cell line (human mammary adenocarcinoma)", "assay": "anti-tumour effect in vitro, growth of MCF-7 cell line (bioluminescence assay, intracellular ATP)", "type": "cell-based", "details": "read-out: Antitumour effect against MCF-7 cell line (IC50 = concentration of compound where 50% inhibition of cell growth could be seen)", "quoted_text": "The anti-tumour effect was studied in vitro as follows:\nThe amount of living cells after 4 h, 24 h and 48 h incubations were determined by bioluminescence assay (intracellular ATP determination).\ninhibition of cell growth could be seen."}, "[8]": {"tested_on": "rat prostatic carcinoma", "assay": "antitumour effect against transplantable prostatic carcinoma", "type": "in vivo", "details": "1 mg/kg, 12 days' treatment", "excerpt": "The anti-tumour effect was investigated in vivo against DMBA-induced rat mammary adenocarcinomas, transplantable mammary and ovarial adenocarcinoma and transplantable prostatic squamous cell carcinoma by the following methods: The activity of the molecules against other tumours was studied by administering the molecules by stomach tube to animals implanted with transplantable uterus sarcoma (mice) or prostatic adenocarcinoma (rats). Daily or twice weekly administration schedules were employed. NMRI mice (about 20 g, females) and Fischer 344 rats (about 200 g, males) were used. Estramustine phosphate served as positive control. Transplantable rat mammary adenocarcinoma was developed by inoculating pieces of DMBA-induced carcinomas subcutaneously to healthy mature female rats. A tumour which expressed malignant growth was selected for further transplantations. Other transplantable tumours were inoculated subcutaneously as washed cell suspension (10^7 cells/animal)."}, "[9]": {"target": "T1, oestrogen receptors (Rattus norvegicus, UniProt P06211)", "T1 construct": "rat uterus cytosol preparation; from tissue; host or cells: rat uterus cytosol", "T1 sequence (P06211 1-600)": "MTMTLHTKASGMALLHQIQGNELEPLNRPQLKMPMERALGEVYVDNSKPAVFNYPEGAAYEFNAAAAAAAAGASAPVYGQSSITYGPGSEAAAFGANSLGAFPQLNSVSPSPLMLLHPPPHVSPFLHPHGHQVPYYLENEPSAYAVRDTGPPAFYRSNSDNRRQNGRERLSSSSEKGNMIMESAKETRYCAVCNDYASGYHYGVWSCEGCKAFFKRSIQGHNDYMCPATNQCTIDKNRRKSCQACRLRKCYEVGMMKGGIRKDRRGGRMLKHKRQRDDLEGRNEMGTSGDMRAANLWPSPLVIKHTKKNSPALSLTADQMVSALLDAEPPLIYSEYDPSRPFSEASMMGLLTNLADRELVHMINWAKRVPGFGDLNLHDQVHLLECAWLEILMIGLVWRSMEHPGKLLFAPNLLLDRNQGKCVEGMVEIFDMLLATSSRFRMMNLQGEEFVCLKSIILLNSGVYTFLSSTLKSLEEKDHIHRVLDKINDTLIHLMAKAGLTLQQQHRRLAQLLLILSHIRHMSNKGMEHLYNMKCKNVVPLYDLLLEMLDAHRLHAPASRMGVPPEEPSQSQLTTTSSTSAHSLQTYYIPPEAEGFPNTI", "assay": "affinity for oestrogen receptors, competition with 3H-17-β-estradiol in rat uterus cytosol (dextran-charcoal method)", "type": "binding", "details": "read-out: Estrogen receptor affinity (concentration of compound where 50% competition (inhibition) with 3H-estradiol occurred)", "quoted_text": "The affinity of the new compounds for oestrogen receptors was determined by the ability to compete with ^3 H-labelled 17-β-estradiol in rat uterus cytosol preparation. After incubation, receptor-bound and receptor-unbound ligands were separated by a known dextrancharcoal method."}}, "note": "Entries after “also recorded” stand apart in the source; their conditions may differ.", "data": [{"molecule": "CN(C)CCOc1ccc(/C(=C(/CCCl)c2ccccc2)c2ccccc2)cc1", "note": "[Compound 7, 4-chloro-1,2-diphenyl-1-[4-[2-(N,N-dimethylamino)ethoxy]phenyl]-1-butene]", "values": [{"measurement": "size of rat ovarial carcinoma smaller compared with control", "setting": "[1]", "result": 20, "unit": "%"}, {"measurement": "inhibition of estradiol induced effect in mouse uterus", "setting": "[2]; 0.5 mg/kg", "result": 27, "unit": "%"}, {"measurement": "anti-estrogenic effect (in words)", "setting": "[2]; immature mouse uterus", "result": "possessed anti-estrogenic effects; also recorded: possessing antiestrogenic and estrogenic properties"}, {"measurement": "effect with estradiol (in words)", "setting": "[2]; with estradiol 0.05 mg/kg", "result": "anti-"}, {"measurement": "reduction in the weights of mice uterus, with estradiol", "setting": "[2]; with estradiol 0.05 mg/kg", "result": 27, "unit": "%"}, {"measurement": "size of uterus sarcoma smaller than that of control", "setting": "[3]", "result": 30, "unit": "%"}, {"measurement": "growth", "setting": "[4]; day 1 of treatment", "result": 0}, {"measurement": "size of tumour (width×height)", "setting": "[4]; day 1 of treatment", "result": 1.5188}, {"measurement": "growth", "setting": "[4]; day 3 of treatment", "result": 0.1551}, {"measurement": "size of tumour (width×height)", "setting": "[4]; day 3 of treatment", "result": 1.6739}, {"measurement": "growth", "setting": "[4]; day 7 of treatment", "result": -0.2118}, {"measurement": "size of tumour (width×height)", "setting": "[4]; day 7 of treatment", "result": 1.3070}, {"measurement": "growth", "setting": "[4]; day 9 of treatment", "result": -0.4714}, {"measurement": "size of tumour (width×height)", "setting": "[4]; day 9 of treatment", "result": 1.0474}, {"measurement": "growth", "setting": "[4]; day 14 of treatment", "result": -0.5392}, {"measurement": "size of tumour (width×height)", "setting": "[4]; day 14 of treatment", "result": 0.1179}, {"measurement": "growth", "setting": "[4]; day 17 of treatment", "result": -0.5752}, {"measurement": "size of tumour (width×height)", "setting": "[4]; day 17 of treatment", "result": 0.0820}, {"measurement": "growth", "setting": "[4]; day 21 of treatment", "result": -0.5851}, {"measurement": "size of tumour (width×height)", "setting": "[4]; day 21 of treatment", "result": 0.0721}, {"measurement": "growth", "setting": "[4]; day 25 of treatment", "result": -0.5682}, {"measurement": "size of tumour (width×height)", "setting": "[4]; day 25 of treatment", "result": 0.0891}, {"measurement": "growth", "setting": "[4]; day 28 of treatment", "result": -0.5640}, {"measurement": "size of tumour (width×height)", "setting": "[4]; day 28 of treatment", "result": 0.09316}, {"measurement": "growth", "setting": "[4]; day 35 of treatment", "result": -0.5379}, {"measurement": "size of tumour (width×height)", "setting": "[4]; day 35 of treatment", "result": 0.1193}, {"measurement": "growth of the tumours (in words)", "setting": "[4]; highest dose used (30 mg/kg)", "result": "the growth of the tumours was found to stop"}, {"measurement": "dose range at which antitumour effect was found", "setting": "[4]; rat, in vivo", "result": "1.0 to 30", "unit": "mg/kg"}, {"measurement": "estrogenic effect: less than that of estradiol 0.05 mg/kg", "setting": "[5]; 5 mg/kg", "result": "about 50%"}, {"measurement": "effect given alone: estrogenic (in words)", "setting": "[5]; given alone", "result": "estrogenic"}, {"measurement": "estrogenic effect (in words)", "setting": "[5]; immature mice, s.c., three days", "result": "could be seen only at the higher concentrations investigated; also recorded: possessing antiestrogenic and estrogenic properties"}, {"measurement": "effect given alone: progestanic (in words)", "setting": "[6]; given alone", "result": "progestanic"}, {"measurement": "progestanic effect (in words)", "setting": "[6]", "result": "found to be progestanic"}, {"measurement": "interaction with medroxyprogesterone (in words)", "setting": "[6]", "result": "slight inhibition of medroxyprogesterone at the lowest dose studied"}, {"measurement": "effect with medroxyprogesterone (in words)", "setting": "[6]", "result": "weak"}, {"measurement": "reduction in the weights of mice uterus with medroxyprogesterone, compared to control", "setting": "[6]", "result": 14, "unit": "%"}, {"measurement": "IC50", "setting": "[7]", "result": "1 to 5", "unit": "µM"}]}, {"molecule": "Oc1ccc([C@@]2(c3ccccc3)OCC[C@@H]2c2ccccc2)cc1", "note": "(relative stereo) [Compound 2, 2,3-diphenyl-2-(4-hydroxyphenyl)tetrahydrofuran]", "values": [{"measurement": "antiestrogenic effect of its own (in words)", "setting": "[2]; up to 5 mg/kg", "result": "no antiestrogenic or estrogenic effect of its own"}, {"measurement": "effect with estradiol (in words)", "setting": "[2]; with estradiol 0.05 mg/kg", "result": "no synergism"}, {"measurement": "size of prostatic tumour smaller than that of control", "setting": "[8]", "result": 29, "unit": "%"}, {"measurement": "antitumour effect against DMBA-induced mammary cancer (in words)", "setting": "[4]; compared with compound 7", "result": "Antitumour effect less than that of compound 7"}, {"measurement": "estrogenic effect of their own (in words)", "setting": "[5]; up to 5 mg/kg", "result": "no estrogenic effect of their own; also recorded: no antiestrogenic or estrogenic effect of its own"}, {"measurement": "IC50", "setting": "[9]", "result": "0.1 to 1", "unit": "µM"}, {"measurement": "decrease of weight of mouse uterus", "setting": "[6]; 0.05 mg/kg", "result": 50, "unit": "%"}, {"measurement": "effect given alone: progestanic (in words)", "setting": "[6]; given alone", "result": "progestanic"}, {"measurement": "reduction in the weights of mice uterus, given alone", "setting": "[6]; given alone, Table 2A", "result": 50, "unit": "%"}, {"measurement": "progestanic effect (in words)", "setting": "[6]", "result": "could purely be considered to be due to its progestanic effect"}, {"measurement": "interaction with medroxyprogesterone (in words)", "setting": "[6]", "result": "synergistic effect with medroxyprogesterone"}, {"measurement": "effect with medroxyprogesterone (in words)", "setting": "[6]", "result": "synergistic"}, {"measurement": "reduction in the weights of mice uterus with medroxyprogesterone, compared to control", "setting": "[6]", "result": 53, "unit": "%"}, {"measurement": "IC50", "setting": "[7]", "result": "5 to 10", "unit": "µM"}]}]}
